{"source": "paper PMC6980832", "about": "“Crystal structures of Triosephosphate Isomerases from Taenia solium and Schistosoma mansoni provide insights for vaccine rationale and drug design against helminth parasites” (PLoS Neglected Tropical Diseases, 2020)", "key": {"SmTPI": {"target": "T1, SmTPI (Schistosoma mansoni, UniProt P48501)", "T1 construct": "gene TPI; full length, codon-optimised synthetic gene, E. coli tpi-null strain, modified pET19; extra Gly-Pro-His before Met1; homodimer about 50 kDa", "T1 sequence (P48501 whole entry)": "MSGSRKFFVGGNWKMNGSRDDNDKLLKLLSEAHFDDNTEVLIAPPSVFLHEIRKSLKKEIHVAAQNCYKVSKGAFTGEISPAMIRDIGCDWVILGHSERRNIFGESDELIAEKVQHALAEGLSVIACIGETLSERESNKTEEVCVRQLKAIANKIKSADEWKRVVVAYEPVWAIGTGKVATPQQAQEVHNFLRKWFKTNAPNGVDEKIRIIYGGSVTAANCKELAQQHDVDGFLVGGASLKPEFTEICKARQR", "test": "X-ray crystal structure of the complex", "type": "binding", "details": "co-crystallised with 10 mM 2-PGA; active site, closed loop 6; 2.3 Å; bound in all 8 monomers"}, "TsTPI": {"target": "T2, TsTPI (Taenia solium, UniProt Q9GTX8)", "T2 construct": "full length, codon-optimised synthetic gene, E. coli tpi-null strain, modified pET19; extra Gly-Pro-His before Met1; homodimer", "T2 sequence (Q9GTX8 whole entry)": "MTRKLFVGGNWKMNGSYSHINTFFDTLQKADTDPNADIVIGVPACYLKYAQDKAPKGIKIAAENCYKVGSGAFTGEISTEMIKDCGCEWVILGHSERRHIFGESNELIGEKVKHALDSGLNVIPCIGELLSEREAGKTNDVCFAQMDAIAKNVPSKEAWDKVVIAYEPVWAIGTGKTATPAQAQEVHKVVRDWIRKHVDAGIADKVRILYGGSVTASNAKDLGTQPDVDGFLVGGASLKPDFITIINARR", "test": "X-ray crystal structure of the complex", "type": "binding", "details": "co-crystallised with 10 mM 2-PGA; active site, closed loop 6; 2.1 Å"}}, "data": [{"smiles": "O=C(O)[C@@H](CO)OP(=O)(O)O", "note": "[2-PGA, 2-phosphoglyceric acid]", "values": [{"measurement": "X-ray crystal structure of the complex", "setting": "SmTPI", "value": "We solved the crystal structures of TsTPI and SmTPI in complex with the inhibitor 2-PGA"}, {"measurement": "X-ray crystal structure of the complex", "setting": "TsTPI", "value": "We solved the crystal structures of TsTPI and SmTPI in complex with the inhibitor 2-PGA"}]}]}
